The text below walks through data of patent US7326422B2, “Dissolvable oxides for biological applications” (DelSiTech Oy, priority 1996, dated 2008).

The nature of data set [1]: Dissolution of spray dried or crushed gel particles in 250 ml SBF, USP XXII dissolution apparatus II (paddle method). The conditions noted are these: for toremifene citrate released: after 30 hours; for slope (%/h^1/2): microspheres with 11 w-% toremifene citrate. The format is physicochemical. The method, then:
The solution for spray drying purpose was prepared with a mole ratio of TEOS:H2O:HCl=1.0:14.2:0.003. […] Before spray drying the pH of the sol was adjusted to pH 2.1 with hydrochloric acid. Silica sol was spray dried immediately or after 65 hours aging at room temperature. The spray drying conditions were as described in Example 6. […] About 42 mg of gel particles were placed in 250 ml of simulated body fluid (SBF) at 37° C. and pH 7.4.

Data set [2] in a line: In vitro dissolution test, USP XXII dissolution apparatus II (paddle method), SBF pH 7.4 with 0.5% sodium dodecyl sulphate, 37° C. It counts as physicochemical. The conditions noted are these: for Dissolution of toremifene citrate: b: silica xerogel with PEG 4,600; for Release of toremifene citrate: SLOPE: silica xerogel; for release of toremifene citrate: linear, zero-order. The method, then:
Simulated body fluid (SBF, pH 7.4) containing 0.5% […] sodium dodecyl sulphate was used as dissolution medium. SBF was prepared by dissolving reagent grade NaCl (136.8 mM), NaHCO3 (4.2 mM), KCl (3.0 mM), K2HPO4×3H2O (1.0 mM), MgCl2×6H2O (1.5 mM), CaCl2×2H2O […] and Na2SO4 (0.5 mM) in distilled water. They were buffered at pH 7.4 with tris-(hydroxymethyl)aminomethane (50 mM) and hydrochloric acid.
The volume of dissolution medium was 250 ml. Agitation intensity was 50 rpm and temperature was 37° C. […]

For data set [3] the following is noted: during the first day; crushed silica xerogel particles of 500-700 μm; cited from earlier work.

Structures can show the parent of a compound that is named as a salt.

As for `CN(C)CCOc1ccc(/C(=C(/CCCl)c2ccccc2)c2ccccc2)cc1` [toremifene citrate], the toremifene citrate released in data set [1] (microspheres (<50 μm) spray dried at pH 3.8, square root of time kinetics) is 80 w-%; in data set [1] (microspheres from sol aged 65 hours, pH 2), 63.1 w-%; in data set [1] (microspheres from unaged sol, pH 2), 75.2 w-%. In data set [1] (crushed silica xerogel granules about 4-50 μm, PEG 4.600), the “dissolution rate (square root of time kinetics)” value was found to be 8.1 %/h^1/2. In addition, the figures for the “cum released toremifene (%) after 30 h” value in data set [1] (microspheres aged for 0 h (pH 2)) and in data set [1] (microspheres aged for 65 h (pH 2)) were 75.2% and 63.1%, respectively. The “slope (%/h^1/2)” value in data set [1] (aged for 0 h (pH 2)) was found to be 12.2 %/h^1/2; in data set [1] (aged for 65 h (pH 2)), 9.79 %/h^1/2. Further, in data set [1] (sol aged 65 h vs 0 h, pH 2), the “release slower from aged than from unaged microspheres” value is “about 20%”. In addition, the “release faster from 28 days aged silica xerogels than from unaged” value in data set [2] (silica xerogel monolith with PEG 4,600) is listed as “about 30%”. For the same compound, the “Dissolution of toremifene citrate: b” value in data set [2] (aging 0 days, dried at 11.4 RH-%) is “b = 0.46%/mg %/mg implant/h^1/2”; in data set [2] (aging 0 days, dried at 48.4 RH-%), “b = 0.53 %/mg implant/h^1/2”; in data set [2] (aging 0 days, dried at 74.7 RH-%) it was “b = 0.46 %/mg implant/h^1/2”; in data set [2] (aging 7 days, dried at 11.4 RH-%) it was “b = 0.59 %/mg implant/h^1/2”; in data set [2] (aging 7 days, dried at 48.4 RH-%), “b = 0.52 %/mg implant/h^1/2”; in data set [2] (aging 7 days, dried at 74.7 RH-%), “b = 0.06%/mg %/mg implant/h”. The “Dissolution of toremifene citrate: b” value in data set [2] (aging 28 days, dried at 11.4 RH-%) is on record as “b = 0.67 %/mg implant/h^1/2”; in data set [2] (aging 28 days, dried at 48.4 RH-%), “b = 0.74 %/mg implant/h^1/2”. In addition, the “Release of toremifene citrate: SLOPE” value in data set [2] (H2O/TEOS = 6:1, PEG 4600) stood at 0.094%/ %/mg × h; in data set [2] (H2O/TEOS = 6:1, PEG 10000), 0.922%/mg %/mg IMPLANT × h^1/2; in data set [2] (H2O/TEOS = 6:1, without PEG), 0.657%/mg %/mg IMPLANT × h^1/2; in data set [2] (H2O/TEOS = 14:1, PEG 4600), 0.052 %/mg IMPLANT × h; in data set [2] (H2O/TEOS = 14:1, PEG 10000), 0.061 %/mg IMPLANT × h; in data set [2] (H2O/TEOS = 14:1, without PEG) it was 0.085 %/mg IMPLANT × h. The “release rate (linear)” value in data set [2] (silica xerogels containing PEG 10 000) came to 0.1 %/mg implant/h; in data set [2] (silica xerogels containing PEG 4600) it was 0.13 %/mg implant/h; in data set [2] (silica-xerogels without polyethylene glycol) it was 0.16 %/mg implant/h; in data set [2] (spray dried particles (60-200 μm) containing 10.2 w-% toremifene citrate, two months from preparation), 0.68 w-% per hour. Moreover, the “release of toremifene citrate” value in data set [2] (sintered silica gel (120° C.) containing 11.5 wt-% drug) is 0.05 %/mg implant/h; in data set [2] (sintered silica gel (120° C.) containing 34.4 wt-% drug) it was 0.11 %/mg implant/h.

Regarding `CN[C@H](CC(C)C)C(=O)N[C@H]1C(=O)N[C@@H](CC(N)=O)C(=O)N[C@H]2C(=O)N[C@H]3C(=O)N[C@H](C(=O)N[C@H](C(=O)O)c4cc(O)cc(O)c4-c4cc3ccc4O)[C@H](O)c3ccc(c(Cl)c3)Oc3cc2cc(c3O[C@@H]2O[C@H](CO)[C@@H](O)[C@H](O)[C@H]2O[C@H]2C[C@](C)(N)[C@H](O)[C@H](C)O2)Oc2ccc(cc2Cl)[C@H]1O` [vancomycin], in data set [3], the incorporated vancomycin released entry was “about 90%”.
